In ChEMBL document CHEMBL1128049, “5-cyano-1-[3-(N-methylpyrrolidin-2R-ylmethyl)indol-5-yl] benzimidazole (CP-161,242): A potent, centrally active 5-HT1D receptor agonist and benzodiazepine partial agonist” (Bioorg Med Chem Lett, 1995):

Legend:
[1] = target: GABA-A receptor; anion channel; experiment: In vitro displacement of [3H]flunitrazepam from GABA-A central benzodiazepine receptor of guinea pig cerebellum; assay type: tissue-based, Cavia porcellus
[2] = target: T1, 5-hydroxytryptamine receptor 1A (Rattus norvegicus, UniProt P19327); experiment: Tested in vitro for receptor binding affinity to 5-hydroxytryptamine 1A receptor in rat cortex using [3H]OH-DPAT radioligand
T1 sequence (P19327 whole entry): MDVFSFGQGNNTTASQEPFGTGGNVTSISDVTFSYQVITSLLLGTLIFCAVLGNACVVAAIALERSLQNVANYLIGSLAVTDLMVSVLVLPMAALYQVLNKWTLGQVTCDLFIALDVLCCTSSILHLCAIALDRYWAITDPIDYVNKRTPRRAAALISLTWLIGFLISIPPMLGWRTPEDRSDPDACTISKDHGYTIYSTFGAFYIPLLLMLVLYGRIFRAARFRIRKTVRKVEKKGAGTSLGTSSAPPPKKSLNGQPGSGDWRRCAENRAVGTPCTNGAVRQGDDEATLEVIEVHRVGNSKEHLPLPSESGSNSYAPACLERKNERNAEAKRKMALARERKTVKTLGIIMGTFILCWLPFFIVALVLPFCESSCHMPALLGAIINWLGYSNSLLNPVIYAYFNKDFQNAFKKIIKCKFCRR

[3] = target: 5-hydroxytryptamine receptor 1D (Cavia porcellus, UniProt Q60484); experiment: Compound was tested for the inhibition of forskolin-stimulated adenylate cyclase at 5-hydroxytryptamine 1D receptor in guinea pig substantia nigra
5-hydroxytryptamine receptor 1D, sequence (Q60484 whole entry): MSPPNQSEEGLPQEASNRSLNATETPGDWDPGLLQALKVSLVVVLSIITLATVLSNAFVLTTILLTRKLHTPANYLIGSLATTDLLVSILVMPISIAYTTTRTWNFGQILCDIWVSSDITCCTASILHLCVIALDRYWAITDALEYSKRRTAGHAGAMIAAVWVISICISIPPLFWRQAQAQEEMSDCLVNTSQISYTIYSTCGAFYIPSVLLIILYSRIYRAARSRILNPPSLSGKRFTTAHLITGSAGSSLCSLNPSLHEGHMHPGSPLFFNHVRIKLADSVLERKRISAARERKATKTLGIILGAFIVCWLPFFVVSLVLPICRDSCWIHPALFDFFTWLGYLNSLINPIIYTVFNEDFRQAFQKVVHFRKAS

Row | SMILES | IC50 [1] | IC50 [2] | EC50 [3]
1 | CN(C)CCc1c[nH]c2ccc(-n3cnc4cccnc43)cc12 | 89 nM | 210 nM | 14 nM
2 | NCCc1c[nH]c2ccc(O)cc12 [SEROTONIN] | – | – | 8.5 nM
3 | CN1CCC[C@@H]1Cc1c[nH]c2ccc(-n3cnc4cc(C#N)ccc43)cc12 | 3.3 nM | 20 nM | 0.042 nM
